Measurements from patent EP4606376A1 (ShanghaiTech University, priority 2022, dated 2024).

Legend:
SARS-CoV-2 Delta = test: microbe, parasite or virus in culture; type: cell-based; settings: Severe acute respiratory syndrome coronavirus 2, 24 h
TMPRSS2 = TMPRSS2 (Homo sapiens, UniProt O15393); test: In vitro enzyme activity inhibition assay (TMPRSS2, substrate Boc-Gln-Ala-Arg-AMC); settings: cross-validation; FIG. 2B
Experimental: (§1) Columns 15 to 20 were added with an equivalent volume of DMSO as a positive control group, and columns 18 to 20 were added with an equivalent volume of buffer as a negative control group. […] The 384-well plate was placed in a microplate reader for detection, and the slope of fluorescence intensity increase in the first 2 minutes of the enzymatic reaction was taken as the activity of the protein for subsequent calculation.

Cathepsin L = Cathepsin L (Homo sapiens, UniProt P07711); test: In vitro enzyme activity inhibition assay (Cathepsin L, substrate Cbz-Phe-Arg-AMC); type: biochemical; settings: cross-validation; FIG. 2A
Sequence of Cathepsin L (P07711 114-333): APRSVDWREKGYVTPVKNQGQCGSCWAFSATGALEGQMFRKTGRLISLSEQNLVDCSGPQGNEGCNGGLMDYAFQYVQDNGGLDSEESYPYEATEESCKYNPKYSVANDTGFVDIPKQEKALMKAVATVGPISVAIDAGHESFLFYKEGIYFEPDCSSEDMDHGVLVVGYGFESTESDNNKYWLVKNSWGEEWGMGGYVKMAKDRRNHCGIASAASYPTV
Experimental: as §1

Sequence of TMPRSS2 (O15393 whole entry): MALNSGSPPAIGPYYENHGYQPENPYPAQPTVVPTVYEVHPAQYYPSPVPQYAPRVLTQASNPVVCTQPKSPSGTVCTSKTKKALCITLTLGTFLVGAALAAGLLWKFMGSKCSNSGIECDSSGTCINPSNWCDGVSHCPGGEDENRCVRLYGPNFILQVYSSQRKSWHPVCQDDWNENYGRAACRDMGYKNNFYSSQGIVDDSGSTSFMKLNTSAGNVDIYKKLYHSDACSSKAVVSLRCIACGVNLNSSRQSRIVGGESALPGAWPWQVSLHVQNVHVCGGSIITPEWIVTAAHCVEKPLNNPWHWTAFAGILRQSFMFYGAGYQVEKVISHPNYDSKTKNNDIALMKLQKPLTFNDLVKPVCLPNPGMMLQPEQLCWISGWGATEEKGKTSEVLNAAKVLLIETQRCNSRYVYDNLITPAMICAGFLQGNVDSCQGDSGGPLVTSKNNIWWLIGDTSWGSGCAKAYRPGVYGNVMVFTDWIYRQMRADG

SMILES: CN1CCN(C(=O)N[C@@H](Cc2ccccc2)C(=O)N[C@H](/C=C/S(=O)(=O)c2ccccc2)CCc2ccccc2)CC1 [K777]
- EC50 (SARS-CoV-2 Delta; […], combination at a molar ratio of 1:1, FIG. 3): 660 nM
- inhibitory activity against TMPRSS2 (TMPRSS2): no inhibitory activity

SMILES: N=C(N)Nc1ccc(C(=O)Oc2ccc3cc(C(=N)N)ccc3c2)cc1 [Nafamostat]
- EC50 (SARS-CoV-2 Delta): 20 nM
- inhibitory activity against Cathepsin L (Cathepsin L): no inhibitory activity
